# Where a name gives a salt, the structure may show the parent alone.
# Assays:
# [1] = High throughput determination of intrinsic clearance in human hepatocytes; type: in vitro ADME; conditions: human, pooled cryopreserved human hepatocytes (10 donors), high throughput human hepatocyte assay; 0.5 million cells/mL, 1 μM test compound, 37° C.; mean +/− Std Dev; read-out: CLint (μL/min/10^6 cells) (+/− Std Dev)
# Protocol: The incubation was carried out at 37° C. […] The samples were centrifuged (Eppendorf, Hauppauge, N.Y.) at 3000 rpm for 5 min at 4° C.
# [2] = Intrinsic clearance in human liver microsomes; type: in vitro ADME; conditions: human, pooled human liver microsomes (50 donors), pH 7.4, human liver microsome assay; 1 μM test compound, 0.806 mg/mL protein, NADPH, pH 7.4, 37° C.; mean +/− STD Dev; read-out: CLint (μL/min/mg) (+/− STD Dev)
# Protocol: The incubations were conducted at 37° C. […] (Sorvall RC 3C Plus, Thermo Scientific, Waltham, Mass.).
# [3] = Determination of pKa (capillary electrophoresis, Analiza, Inc.); type: physicochemical; conditions: mean, read-out: Basic pKa (most basic pKa)
# [4] = Intrinsic clearance in human hepatocytes (relay method); type: in vitro ADME; conditions: human, cryopreserved human hepatocytes (suspension, relay method), 20 h total incubation, mean +/− standard deviation, read-out: CLint (+/− Std Dev), relay hepatocyte assay
# Protocol: For intrinsic clearance (CLint) measurement, hepatocyte relay method was used (Di, L., et al. 2012, Drug Metab. Dispos., 40, 1860-1865 and Di, L., et al. 2013, Drug Metab. Dispos., 41, 2018-2023). Cryopreserved human hepatocytes (Lot DCM from BioreclamationlVT) were used. Upon thawing, the hepatocytes were resuspended in Williams' medium E (custom formula number 91-5233EA; Gibco, Grand Island, N.Y.) supplemented with Hepes and Na2CO3. […] The plates were incubated at 37° C. with 95% air/5% CO2, 75% relative humidity for 4 h at 150 rpm in a humidified incubator. At time 0 and 4 h, 25 μL of hepatocyte suspension was removed from the incubation and added to 50 μL of ice-cold acetonitrile (containing metoprolol, indomethacin, and terfenadine as internal standards) to quench the reaction. The samples were centrifuged (Eppendorf, Hauppauge, N.Y.) at 3000 rpm (1439×g) for 10 min at room temperature, and 50 μL of supernatant was transferred to a clean plate, dried completely, and reconstituted before liquid chromatography/tandem mass spectrometry (LC-MS/MS) analysis. The remaining hepatocyte suspensions in the incubation plate were centrifuged (3000 rpm, 1439×g, 10 min, room temperature). The supernatant of 300 μL was transferred to a clean 24-well plate and stored at −80° C. until the next relay experiment. For the second relay experiment, the supernatant plates were warmed first to room temperature for 30 minutes, then to 37° C. for 30 min, and hepatocytes were added to the samples to give a final cell density of 0.5 million cells/mL. The plates were incubated at 37° C. for 4 h, sampled, and processed as described above. Five relays were performed to give a total incubation time of 20 h, with sampling points at (0, 4, 8, 12, 16 and 20 h). The concentrations of test compound determined at each time point by the LC-MS/MS analysis were used to calculate the intrinsic clearance.
# [5] = Thermodynamic solubility in various biorelevant media; type: physicochemical; conditions: crystalline solid; for solubility at 25 h: 25 °C, thermodynamic from solid
# Protocol: The solubility of active pharmaceutical ingredients is an important characteristic in determining biological performance and ease of formulation during drug development, with high solubility being preferred (Klein, S. 2010, The AAPS Journal, 12, 397-406; Di, L., et al 2012, Drug Disc. Today, 17. 486-495). A test sample of crystalline solid (˜7 mg) was combined in a vial with 1 mL of the relevant buffer solution and the mixture vortexed to combine. If the solid dissolved completely, additional solid was added with vortexing until a saturated solution was obtained. The saturated solution/solid mixture was capped and subjected to temperature cycling as follows: 1 min at 25° C., 8 h at 40° C., 5 h at 15° C. and 12 h at 25° C. The mixture was filtered in a centrifugal filtration device (0.22 μm PVDF filter, MilliporeSigma, Milwaukee, Wis.) at 13,000 rpm and the concentration of the test compound in the filtrate was determined by HPLC/UPLC with reference to a three point standard curve. Phosphate buffered saline (PBS, pH 6.8, 50 mM phosphate buffer, 250 mM NaCl). Simulated gastric fluid (SGN pH 1.2, USP recipe). Fasted state simulated intestinal fluid (FaSSIF, 3 mM sodium taurocholate, 0.75 mM phospholipid from soybean lecithin, 50 mM phosphate buffer, ionic strength adjusted to 250 mM with NaCl, pH 6.8) and fed state simulated intestinal fluid (FeSSIF, 15 mM sodium taurocholate, 3.75 mM phospholipid from soybean lecithin, 144 mM acetic acid, 50 mM phosphate buffer, ionic strength adjusted to 250 mM with NaCl, pH 6.8).
# human DGAT2 (hDGAT2) = human DGAT2 (hDGAT2) (Homo sapiens (Human), UniProt Q96PD7); experiment: In vitro DGAT2 assay, determination of IC50 values for DGAT2 inhibitors; type: biochemical; conditions: hDGAT2 membrane fraction; geometric mean
# Sequence of human DGAT2 (hDGAT2) (Q96PD7 whole entry): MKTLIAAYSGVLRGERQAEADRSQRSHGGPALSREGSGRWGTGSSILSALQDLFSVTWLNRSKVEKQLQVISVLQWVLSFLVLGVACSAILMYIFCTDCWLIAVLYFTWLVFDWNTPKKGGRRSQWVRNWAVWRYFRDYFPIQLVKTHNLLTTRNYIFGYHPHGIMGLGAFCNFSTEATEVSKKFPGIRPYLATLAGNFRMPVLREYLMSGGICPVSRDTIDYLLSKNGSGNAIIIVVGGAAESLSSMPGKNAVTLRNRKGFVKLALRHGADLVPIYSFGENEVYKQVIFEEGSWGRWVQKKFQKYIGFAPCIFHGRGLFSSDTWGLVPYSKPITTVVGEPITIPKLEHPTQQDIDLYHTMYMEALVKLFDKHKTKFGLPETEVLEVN
# Protocol: Recombinant baculovirus for the FLAG-tagged hDGAT2 was generated in SF9 insect cells using Bac-to-Bac baculovirus expression system (Invitrogen) according to the manufacturer's protocol. For the expression of hDGAT2, SF9 cells (20 L) grown in Sf900II media were infected with hDGAT2 baculovirus at a multiplicity of infection of 1 in a Wave Bioreactor System 20/50P wave bag (GE Healthcare). After 40 hours of infection, the cells were then harvested by centrifugation at 5,000×g. The cell pellets were washed by resuspending in phosphate buffered saline (PBS) and collected by centrifugation at 5,000×g. The cell paste was flash frozen in liquid N2 and stored at −80° C. until needed. All operations below were at 4° C. unless otherwise noted. The cells were resuspended in lysis buffer (50 mM Tris-HCl, pH 8.0, 250 mM sucrose) including 1 mM ethylenediaminetetraacetic acid (EDTA) and the complete protease inhibitor cocktail (Roche Diagnostics) at a ratio of 3 mL buffer per 1 g cell paste. The cells were lysed by dounce homogenizer. The cell debris was removed by centrifugation at 1,000×g for 20 min, and the supernatant was centrifuged at 100,000×g for 1 hour. The resulting pellet was rinsed three times by filling ultracentrifuge tubes to the top with ice cold PBS before decanting. The washed pellet was resuspended with gentle stirring for 1 hour in lysis buffer containing 8 mM 3-[(3-cholamidopropyl)dimethylammonio]-1-propanesulfonate (CHAPS) at a ratio of 1 mL buffer per 1 g of original cell paste and centrifuged again at 100,000×g for 1 hour. The resulting supernatant was aliquotted, flash frozen in liquid N2, and stored at −80° C. until use.
# To 1 μL of compounds dissolved in 100% DMSO and spotted at the bottom of each well, 5 μL of 0.04% bovine serum albumin (BSA) (fatty acid free, Sigma Aldrich) was added and the mixture was incubated at room temperature for 15 minutes. hDGAT2 membrane fractions were diluted in 100 mM Hepes-NaOH, pH 7.4, 20 mM MgCl2 containing 200 nM methyl arachidonyl fluorophosphonate (Cayman Chemical; dried from ethyl acetate stock solution under argon gas and dissolved in DMSO as 5 mM stock). 10 μL of this enzyme working solution was added to the plates and incubation continued for 2 hours at room temperature. […] Plates were centrifuged at 2,000×g for 1 minute in an Allegra 6R Centrifuge (Beckman Coulter) and then were sealed again with fresh covers before reading in a 1450 Microbeta Wallac Trilux Scintillation Counter (Perkin Elmer). DGAT2 activity was measured by quantifying the generated product [^14C]tridecanoylglycerol in the upper organic phase. […]
SMILES,hepatocyte CLint at 1 μM [1],microsomal CLint at 1 μM [2],pKa [3],hepatocyte CLint at 1 μM [4],IC50 (human DGAT2 (hDGAT2)),also measured
"CCOc1cccnc1Oc1cncc(-c2ncc(C(=O)N[C@H]3CCC(C(F)(F)F)NC3)cn2)c1 (mixture of isomers) [Example 8, rac-2-{5-[(3-ethoxypyridin-2-yl)oxy]pyridin-3-yl}-N-[(3R,6S)-6-(trifluoromethyl)piperidin-3-yl]pyrimidine-5-carboxamide or rac-2-{5-[(3-ethoxypyridin-2-yl)oxy]pyridin-3-yl}-N-[(3R,6R)-6-(trifluoromethyl)piperidin-3-yl]pyrimidine-5-carboxamide]",12 µL/min/1e6 cells,< 14 µL/min/mg,,,,
"CCOc1cccnc1Oc1cncc(-c2ncc(C(=O)NC3(CO)CCOC3)cn2)c1 (single isomer, unassigned) [WO2018033832 Ex. 6a]",< 3.8 µL/min/1e6 cells,13 µL/min/mg,2.3,3.2 µL/min/1e6 cells,,
"CCOc1cc(F)cnc1Oc1cncc(-c2ncc(C(=O)N[C@@H]3CNCC[C@@H]3F)cn2)c1 [Example 1, 2-{5-[(3-Ethoxy-5-fluoropyridin-2-yl)oxy]pyridin-3-yl}-N-[(3R,4S)-4-fluoropiperidin-3-yl]pyrimidine-5-carboxamide, bis(trifluoroacetate) Salt]",< 2.7 µL/min/1e6 cells,< 7 µL/min/mg,7.7,,,
"CCOc1cccnc1Oc1cncc(-c2ncc(C(=O)N[C@H]3CCOC3)cn2)c1 [WO2018033832 Ex. 1, Form 1]",,,,,,"Solubility ([5]; SGN pH 1.2 (simulated gastric fluid)): 78 µg/mL; solubility at 25 h ([5]; fasted state simulated intestinal fluid (FaSSIF), pH 6.8, fassif, FaSSIF pH 6.8): 69 µg/mL; solubility at 25 h ([5]; phosphate buffered saline, pH 6.8, aqueous buffer, PBS, pH 6.8): 43 µg/mL"
"CCOc1cccnc1Oc1cncc(-c2ncc(C(=O)N[C@H]3CCOC3)cn2)c1 [WO2018033832 Ex. 1, Form 2]",,,,,,"Solubility ([5]; FaSSIF pH 6.8): 93 µg/mL; Solubility ([5]; PBS, pH 6.8): 60 µg/mL"
CCOc1cccnc1Oc1cncc(-c2ncc(C(=O)N[C@H]3CCOC3)cn2)c1 [WO2018033832 Ex. 1],< 3.8 µL/min/1e6 cells,11 µL/min/mg,2.4,3.9 µL/min/1e6 cells,,
CCOc1cccnc1Oc1cncc(-c2ncc(C(=O)N[C@@H]3CCOC3)cn2)c1 [WO2018033832 Ex. 2],4.7 µL/min/1e6 cells,17 µL/min/mg,2.5,4.9 µL/min/1e6 cells,,
CCOc1cccnc1Oc1cncc(-c2ncc(C(=O)NC3(C)CCS(=O)(=O)C3)cn2)c1 (stereo not shown) [WO2018033832 Ex. 3.1],9.3 µL/min/1e6 cells,30 µL/min/mg,,,13 nM,
CCOc1cccnc1Oc1cncc(-c2ncc(C(=O)NC3CCS(=O)(=O)C3)cn2)c1 (stereo not shown) [WO2018033832 Ex. 3.3],5.1 µL/min/1e6 cells,< 8 µL/min/mg,,,200 nM,
CCOc1cc(F)cnc1Oc1cncc(-c2ncc(C(=O)N[C@H]3CCOC3)cn2)c1 [WO2018033832 Ex. 8],9.3 µL/min/1e6 cells,< 9.6 µL/min/mg,,,3.3 nM,

# Source: patent US11471458B2, “Diacylglycerol acyl transferase 2 inhibitor” (Pfizer Inc., priority 2019, dated 2022)
